{"source": "paper PMC4586513", "about": "“Mitochondrial ADP/ATP exchange inhibition: a novel off-target mechanism underlying ibipinabant-induced myotoxicity” (Scientific Reports, 2015)", "molecular_target": "T1, adenine nucleotide translocase 1 (ANT1) (Bos taurus, UniProt P02722)", "T1 construct": "gene SLC25A4; native ANT in isolated bovine heart mitochondria", "T1 sequence (P02722 2-298)": "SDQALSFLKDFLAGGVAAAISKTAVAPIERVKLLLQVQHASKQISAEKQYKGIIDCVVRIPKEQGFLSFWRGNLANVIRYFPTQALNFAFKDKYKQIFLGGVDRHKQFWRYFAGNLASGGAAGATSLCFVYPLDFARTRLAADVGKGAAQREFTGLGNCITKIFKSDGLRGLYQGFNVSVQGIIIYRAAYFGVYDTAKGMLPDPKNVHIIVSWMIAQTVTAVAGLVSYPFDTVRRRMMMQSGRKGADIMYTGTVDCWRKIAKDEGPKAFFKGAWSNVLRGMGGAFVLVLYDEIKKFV", "test": "[…]ADP uptake in isolated bovine heart mitochondria with […] atractyloside; import decreased to […]", "format": "cell-based", "data": [{"smiles": "C=C1[C@@H]2CC[C@H]3[C@]4(C)C[C@H](O[C@@H]5O[C@H](CO)[C@@H](OS(=O)(=O)O)[C@H](OS(=O)(=O)O)[C@H]5OC(=O)CC(C)C)C[C@@H](C(=O)O)[C@H]4CC[C@]3(C2)[C@H]1O", "note": "[atractyloside]", "values": [{"measurement": "remaining activity at 50 µM", "result": "13.8 ± 1.1", "unit": "%"}]}]}
